Results on two molecules are retold here after US12492195B2, “Preparation method for and crystal form of 3-aryloxy-3-five-membered heteroaryl-propylamine compound” (Zhangzhou Pien Tze Huang Pharmaceutical Co., Ltd., priority 2020, dated 2025).

In one test the test system is SD rats. The test is described as follows: SNL model in rats, mechanical hyperalgesia test. The format is in vivo. To be noted: 10 mg/kg by gavage, 1 hour after administration. The protocol:
Male SPF grade SD rats, weighed 150-180 g, were selected. Aseptic operation during surgery was performed. The animals were anesthetized with sodium pentobarbital (50 mg/kg, intraperitoneal injection). The surgical area of animal waist was shaved and the skin was disinfected three times with iodophor and 70% ethanol. After the skin was dried, the operation was started. Surgical knife was used to make a longitudinal incision at the back of the sacrum of the animal waist to expose the left paraspinal muscles, and distractor was used to separate muscle tissue to expose the spine. The left spinal nerves L5 and L6 were separated and ligated with a 6-0 silk thread, and the wound was sutured. […]
The animals were weighed to calculate the dosage. […] During the test, rapid paw withdrawal of animal was recorded as pain response. When the test fiber was removed from animal skin, the paw withdrawal of animal was also recorded as pain response. If animal moved or walked, the pain response was not recorded and the test was repeated. […]
Mechanical hyperalgesia was expressed as paw withdrawal threshold (PWT) in rat behavioral test, which was calculated with the following formula: 50% response threshold (g)=(10^(Xf+k))/10,000; • Xf=the final test fiber value used in the test; • k=table value; • =mean difference

For the next test, the target named is T1, human TRPA1 channel (Homo sapiens, UniProt O75762).
T1 construct: expressed in transfected cells
T1 sequence (O75762 whole entry): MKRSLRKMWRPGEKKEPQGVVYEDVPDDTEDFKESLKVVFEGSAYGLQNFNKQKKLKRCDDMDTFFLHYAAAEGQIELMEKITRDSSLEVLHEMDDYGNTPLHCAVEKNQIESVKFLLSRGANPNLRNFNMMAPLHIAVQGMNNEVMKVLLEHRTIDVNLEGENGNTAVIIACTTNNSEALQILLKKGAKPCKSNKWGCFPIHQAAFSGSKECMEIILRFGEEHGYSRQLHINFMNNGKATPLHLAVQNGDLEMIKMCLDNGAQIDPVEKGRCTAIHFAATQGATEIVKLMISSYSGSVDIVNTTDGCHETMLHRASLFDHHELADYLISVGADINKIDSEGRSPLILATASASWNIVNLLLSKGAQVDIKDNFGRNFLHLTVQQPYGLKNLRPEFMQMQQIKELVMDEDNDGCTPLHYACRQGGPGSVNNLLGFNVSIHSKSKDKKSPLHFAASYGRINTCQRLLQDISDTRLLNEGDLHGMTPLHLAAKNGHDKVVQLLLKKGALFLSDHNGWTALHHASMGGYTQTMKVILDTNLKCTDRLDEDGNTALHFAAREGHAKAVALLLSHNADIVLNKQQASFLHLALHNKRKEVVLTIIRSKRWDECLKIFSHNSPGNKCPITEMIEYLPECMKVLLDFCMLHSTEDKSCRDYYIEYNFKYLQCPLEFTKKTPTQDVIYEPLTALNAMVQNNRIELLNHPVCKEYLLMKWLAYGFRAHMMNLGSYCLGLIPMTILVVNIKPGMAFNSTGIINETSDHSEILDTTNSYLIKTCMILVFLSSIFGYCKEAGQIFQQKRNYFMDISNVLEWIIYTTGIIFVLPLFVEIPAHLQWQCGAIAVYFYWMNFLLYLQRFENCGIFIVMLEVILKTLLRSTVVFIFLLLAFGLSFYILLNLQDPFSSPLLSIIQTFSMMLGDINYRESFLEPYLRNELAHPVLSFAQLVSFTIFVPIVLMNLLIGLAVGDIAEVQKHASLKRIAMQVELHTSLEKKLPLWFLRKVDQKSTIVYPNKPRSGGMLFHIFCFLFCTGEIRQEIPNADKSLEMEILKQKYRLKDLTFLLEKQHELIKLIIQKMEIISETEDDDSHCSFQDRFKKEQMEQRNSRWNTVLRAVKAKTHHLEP
In words: manual patch clamp detection of TRPA1 inhibitory activity. The test is classed as cell-based. As to the method:
The stably transfected HEK293 cell line stably expressing human TRPA1 channel was placed in T75 culture flask with DMEM medium containing 15 μg/mL Blasticidin S HCl, 200 μg/mL Hygromycin B and 10% FBS, and cultured in an incubator in 5% CO2 at 37° C. When the cell density reached about 80%, the culture medium was removed, the residue was rinsed once with phosphate buffered saline (PBS) without calcium and magnesium. 2 mL of Trypsin was added to digest for 2 minutes, and 8 mL of culture medium was added to terminate the digestion. The cells were collected to 15 mL centrifuge tube and centrifuged at 800 rpm for 3 min. After the supernatant was removed, the cells were added to appropriate volume of extracellular fluid for re-suspending.
In manual patch clamp detection, HEKA system (Patch Master software) was used together with EPC-10 amplifier to record the whole cell current of TRPA1 stably transfected cell line at room temperature. […]
The record of data and the export of current amplitude measurement were carried out by Patch Master software. […] The original current data were corrected by software for leakage reduction, and the hTRPA1 current amplitude was measured at ±100 mV. The compound dose-effect curve and IC50 were fitted and calculated by GraphPad Prism 5.02 (GraphPad Sofhvare, San Diego, CA).
On the technique in general: Patch clamp records ionic current or voltage across a cell membrane.

`CNCC[C@H](Oc1cccc2ccoc12)c1cccs1` [IC-1, (S)-3-(Benzofuran-7-yloxy)-N-methyl-3-(thiophen-2-yl)propan-1-amine]: the “PWT” value with SD rats came to 7.869 ± 2.846 g. Moreover, the “ratio of IC50 of the S configuration of duloxetine to the IC50 of the compound” value on human TRPA1 channel worked out at 10.14.

Regarding `CNCC[C@H](Oc1cccc2c1CCC2)c1cccs1` [IC-10], on human TRPA1 channel, the “ratio of IC50 of the S configuration of duloxetine to the IC50 of the compound” value turned out to be 3.9.
